Measured values: ChEMBL document CHEMBL3044608, “Synthesis and fungicidal activity of hydrazones containing 4-methylbenzo[d]thiazole moiety” (2012)

What was measured:
Format in all cases: functional
Ustilaginoidea = assay: microbe, parasite or virus in culture; conditions: read-out: GI
Description: Fungicidal activity against Ustilaginoidea oryzae assessed as inhibition rate of circle mycelium growth at 500 ug/ml

Sclerotinia sclerotiorum = assay: microbe, parasite or virus in culture; conditions: read-out: GI
Description: Fungicidal activity against Sclerotinia sclerotiorum assessed as inhibition rate of circle mycelium growth at 500 ug/ml

Botrytis cinerea = assay: microbe, parasite or virus in culture; conditions: read-out: GI
Description: Fungicidal activity against Botryotinia fuckeliana assessed as inhibition rate of circle mycelium growth at 500 ug/ml

Alternaria alternata = assay: microbe, parasite or virus in culture; conditions: read-out: GI
Description: Fungicidal activity against Alternaria alternata assessed as inhibition rate of circle mycelium growth at 500 ug/ml

Phytophthora capsici = assay: microbe, parasite or virus in culture; conditions: read-out: GI
Description: Fungicidal activity against Phytophthora capsici assessed as inhibition rate of circle mycelium growth at 500 ug/ml

Fusarium graminearum = assay: microbe, parasite or virus in culture; conditions: read-out: GI
Rhizoctonia solani [1] = assay: microbe, parasite or virus in culture; conditions: read-out: GI
Description: Fungicidal activity against Rhizoctonia solani assessed as inhibition rate of circle mycelium growth at 500 ug/ml

Rhizoctonia solani [2] = conditions: at 100 µg/mL
Description: Fungicidal activity against Rhizoctonia solani assessed as inhibition rate of circle mycelium growth at 100 ug/ml relative to control

Rhizoctonia solani [3] = conditions: at 400 µg/mL
Description: Fungicidal activity against Rhizoctonia solani assessed as inhibition rate of circle mycelium growth at 400 ug/ml relative to control

Rhizoctonia solani [4] = conditions: at 200 µg/mL
Description: Fungicidal activity against Rhizoctonia solani assessed as inhibition rate of circle mycelium growth at 200 ug/ml relative to control

## Cc1cccc2sc(NN)nc12
Ustilaginoidea
  inhibition of growth at 500 µg/mL: 0%
Sclerotinia sclerotiorum
  inhibition of growth at 500 µg/mL: 16.2%
Botrytis cinerea
  inhibition of growth at 500 µg/mL: 22.3%
Alternaria alternata
  inhibition of growth at 500 µg/mL: 13.6%
Phytophthora capsici
  inhibition of growth at 500 µg/mL: 0%
Fusarium graminearum
  inhibition of growth at 500 µg/mL: 0%
Rhizoctonia solani [1]
  inhibition of growth at 500 µg/mL: 0%

## C/C(=N\Nc1nc2c(C)cccc2s1)c1ccc(F)cc1
Ustilaginoidea
  inhibition of growth at 500 µg/mL: 0%
Sclerotinia sclerotiorum
  inhibition of growth at 500 µg/mL: 28.1%
Botrytis cinerea
  inhibition of growth at 500 µg/mL: 0%
Alternaria alternata
  inhibition of growth at 500 µg/mL: 0%
Phytophthora capsici
  inhibition of growth at 500 µg/mL: 0%
Fusarium graminearum
  inhibition of growth at 500 µg/mL: 0%
Rhizoctonia solani [1]
  inhibition of growth at 500 µg/mL: 0%

## CC(C)=NNc1nc2c(C)cccc2s1
Ustilaginoidea
  inhibition of growth at 500 µg/mL: 20%
Sclerotinia sclerotiorum
  inhibition of growth at 500 µg/mL: 59.4%
Botrytis cinerea
  inhibition of growth at 500 µg/mL: 70.8%
Alternaria alternata
  inhibition of growth at 500 µg/mL: 47.8%
Phytophthora capsici
  inhibition of growth at 500 µg/mL: 0%
Fusarium graminearum
  inhibition of growth at 500 µg/mL: 0%
Rhizoctonia solani [1]
  inhibition of growth at 500 µg/mL: 0%

## CC/C(C)=N/Nc1nc2c(C)cccc2s1
Ustilaginoidea
  inhibition of growth at 500 µg/mL: 40%
Sclerotinia sclerotiorum
  inhibition of growth at 500 µg/mL: 87.5%
Botrytis cinerea
  inhibition of growth at 500 µg/mL: 70.8%
Alternaria alternata
  inhibition of growth at 500 µg/mL: 47.8%
Phytophthora capsici
  inhibition of growth at 500 µg/mL: 0%
Fusarium graminearum
  inhibition of growth at 500 µg/mL: 0%
Rhizoctonia solani [1]
  inhibition of growth at 500 µg/mL: 90%

## C/C(=N\Nc1nc2c(C)cccc2s1)c1ccccc1
Ustilaginoidea
  inhibition of growth at 500 µg/mL: 0%
Sclerotinia sclerotiorum
  inhibition of growth at 500 µg/mL: 31.3%
Botrytis cinerea
  inhibition of growth at 500 µg/mL: 0%
Alternaria alternata
  inhibition of growth at 500 µg/mL: 21.7%
Phytophthora capsici
  inhibition of growth at 500 µg/mL: 0%
Fusarium graminearum
  inhibition of growth at 500 µg/mL: 0%
Rhizoctonia solani [1]
  inhibition of growth at 500 µg/mL: 0%

## C/C(=N\Nc1nc2c(C)cccc2s1)c1c(F)cccc1F
Rhizoctonia solani [2]
  Efficacy: 35%
Ustilaginoidea
  inhibition of growth at 500 µg/mL: 0%
Sclerotinia sclerotiorum
  inhibition of growth at 500 µg/mL: 0%
Rhizoctonia solani [3]
  Efficacy: 65%
Botrytis cinerea
  inhibition of growth at 500 µg/mL: 0%
Alternaria alternata
  inhibition of growth at 500 µg/mL: 0%
Phytophthora capsici
  inhibition of growth at 500 µg/mL: 0%
Rhizoctonia solani [4]
  Efficacy: 45%
Fusarium graminearum
  inhibition of growth at 500 µg/mL: 0%
Rhizoctonia solani [1]
  inhibition of growth at 500 µg/mL: 95%

## C/C(=N\Nc1nc2c(C)cccc2s1)c1ccc(Cl)cc1
Ustilaginoidea
  inhibition of growth at 500 µg/mL: 0%
Sclerotinia sclerotiorum
  inhibition of growth at 500 µg/mL: 9.4%
Botrytis cinerea
  inhibition of growth at 500 µg/mL: 0%
Alternaria alternata
  inhibition of growth at 500 µg/mL: 0%
Phytophthora capsici
  inhibition of growth at 500 µg/mL: 0%
Fusarium graminearum
  inhibition of growth at 500 µg/mL: 0%
Rhizoctonia solani [1]
  inhibition of growth at 500 µg/mL: 0%

## C/C(=N\Nc1nc2c(C)cccc2s1)c1ccc(C)cc1
Ustilaginoidea
  inhibition of growth at 500 µg/mL: 5%
Sclerotinia sclerotiorum
  inhibition of growth at 500 µg/mL: 28.1%
Botrytis cinerea
  inhibition of growth at 500 µg/mL: 0%
Alternaria alternata
  inhibition of growth at 500 µg/mL: 0%
Phytophthora capsici
  inhibition of growth at 500 µg/mL: 0%
Fusarium graminearum
  inhibition of growth at 500 µg/mL: 0%
Rhizoctonia solani [1]
  inhibition of growth at 500 µg/mL: 30%

## C/C(=N\Nc1nc2c(C)cccc2s1)c1ccc([N+](=O)[O-])cc1
Ustilaginoidea
  inhibition of growth at 500 µg/mL: 0%
Sclerotinia sclerotiorum
  inhibition of growth at 500 µg/mL: 0%
Botrytis cinerea
  inhibition of growth at 500 µg/mL: 0%
Alternaria alternata
  inhibition of growth at 500 µg/mL: 0%
Phytophthora capsici
  inhibition of growth at 500 µg/mL: 0%
Fusarium graminearum
  inhibition of growth at 500 µg/mL: 0%
Rhizoctonia solani [1]
  inhibition of growth at 500 µg/mL: 90%
